# From US8017584B2, “GD3-mimetic peptides” (Otsuka Pharmaceutical Co., Ltd., priority 2000, dated 2011)
# Where “and” joins values, the source holds several entries; their conditions need not be identical. Identical values can stand only once.
# Key:
# [1] = test system: GD3 antibody 4F6; test: ELISA of immobilized MAP-form GD3-mimetic peptides with anti-GD3 antibody (Example 3(3)); assay type: binding, mouse; details: for ELISA absorbance, Anti-GD3 antibody: MAP form 100 ng/well
# Experimental: (§1) A 0.1M NaHCO3 solution containing each of the phage clones obtained in Example 1 (10^11, 10^10, or 10^9 titer/100 μL) was added to the wells of a 96-well microtiter plate (product of Nunc), for immobilization of the phage clones at room temperature for one hour. The supernatant was removed, then the wells were subjected to blocking by use of a blocking solution ([…]; TBS containing 1% BSA, 0.1% skim milk, and 0.02% Tween 20; pH 7.5) at 37° C. for four hours.
# (§2) The supernatant was removed, then GD3 antibody 4F6 (100 μL), serving as a primary antibody, was added to each well for reaction under shaking at room temperature for two hours. After completion of reaction, the supernatant was removed, then the wells were washed six times with a washing solution (400 μL for each well, TBS containing 0.05% Tween 20). Subsequently, a secondary antibody (anti-mouse IgG-HRP, product of Santa Cruz Biotechnology, catalogue No. SC-2031, Lot. No. C089) which was diluted 5,000-fold by use of a blocking solution prepared in advance was added to the wells (100 μL to each well) for reaction under shaking at room temperature for one hour. After completion of reaction, the wells were washed four times with a washing solution (400 μL for each well), then a detection reagent (TMB Microwell; product of KPL, Catalogue No. 50-76-04, Lot. No. WF075) was added to the wells (100 μL to each well), and the mixture was allowed to stand for five minutes at room temperature.
# (§3) 1N-Hydrochloric acid (100 μL) was added to each well for stopping the reaction. Absorbance of each well was measured at 450 nm and 620 nm, and “OD450-OD620” was calculated. A Multiscan (product of Labosystems) was used in measurement of absorbance. A well in which phages had not been immobilized served as a blank, and the absorbance of each well was determined by subtracting the blank value from the “as-measured” value.
# (§4) A 0.1M NaHCO3 solution containing a GD3-mimetic peptide of the invention in the above MAP form (100 ng/100 μL) was added to the wells of a 96-well micro-titer plate, for immobilization at room temperature for one hour. Subsequently, in a manner similar to the ELISA method employed in Example 2, binding affinity of the GD3-mimetic peptide to GD3 antibody 4F6 was investigated.
# (§5) Anti-GD2 antibody and anti-OAcGD3 antibody (Cerato, E., et al., Hybridoma, 16(4), 307-316 (1997)) were used as controls (these antibodies were kindly provided by from Dr. Portoukalian).
# [2] = test system: GD3 antibody 4F6; test: ELISA of immobilized phage clones with GD3 antibody 4F6 (Example 2); assay type: binding, mouse; details: phage clone immobilized, duplicate lines
# Experimental: as §1, §2, §3
# [3] = test system: T-cell-rich lymphocytes / IL-2-dependent CTLL2 cells; test: Cell response test: IL-2 activity (3H thymidine up-take of CTLL2 cells) in supernatant of spleen cells of mice immunized with GD3; assay type: cell-based, mouse; details: for 3H Thymidine up-take into CTLL2 cells, mean ± SE (4 wells): mice immunized with GD3
# Experimental: Similar to the case of immunization with R4-KLH, antiserum samples were also prepared through immunization with GD3 (30 μg).
# (§6) The spleen aseptically removed from each of the above-immunized mice was minced in a 10% FCS-supplemented RPMI 1640 medium. By use of a nylon wool column, T-cell-rich lymphocytes were prepared and the cells were counted. The above medium containing the cells in an amount of 10^5 cells per 150 μL was added to each of the wells of a culture plate. PHA was added so as to attain a final concentration of 1 μg/mL. A peptide of the present invention or any of different gangliosides in PBS was added, and the mixture was incubated for 96 hours. A supernatant (100 μL) was obtained from each well. The IL-2 activity of the supernatant was determined through use of IL-2-dependent mouse cells, CTLL2. Briefly, the supernatant (100 μL) diluted 2 to 50-fold with a medium was added to the wells in an amount of 10^4 CTLL2 cells/well, followed by incubation at 37° C. for 48 hours. Subsequently, 3H-thymidine (0.5 μCi) was added to each well, followed by incubation for 6 hours. CTLL2 cells were recovered on a paper filter and counted for 3H.
# [4] = test system: T-cell-rich lymphocytes / IL-2-dependent CTLL2 cells; test: Cell response test: IL-2 activity (3H thymidine up-take of CTLL2 cells) in supernatant of spleen cells of mice immunized with R4 peptide (R4-KLH); assay type: cell-based, mouse; details: for 3H Thymidine up-take into CTLL2 cells, mean ± SE (4 wells): mice immunized with R4 peptide
# Experimental: Using a fusion peptide R4-KLH obtained in Example 3 (4) between GD3R4 and KLH or a MAP form fusion peptide R4MAP-KLH created between GD3R4 and KLH, immunization was performed as described in (1) above.
# Briefly, an emulsion mixed with an adjuvant (1:1, by volume) was administered to each member of groups of mice, each group consisting of 3 mice (CD-1), in an amount of 100 μL/mouse (for one administration (ip), peptide 30 μg/mouse) for immunization. In the case of R4-KLH, administration was performed every one week for one month, and subsequently every two weeks for one month; and in the case of R4MAP-KLH, every one week for 2 months. In any case, 4 days after the final immunization, blood was collected to thereby prepare antiserum samples.
# as §6
# [5] = test system: Anti-GD2 antibody; test: ELISA of immobilized MAP-form peptides with control anti-GD2 antibody; assay type: binding; details: MAP form 100 ng/well
# Experimental: as §4, §5
# [6] = test system: Anti-OAcGD3 antibody; test: ELISA of immobilized MAP-form peptides with control anti-OAcGD3 antibody; assay type: binding; details: MAP form 100 ng/well
# Experimental: as §4, §5
# [7] = stimulant 1 μg/ml, supernatant dilution 1/20
# [8] = stimulant 1 μg/ml, supernatant dilution 1/50
# [9] = stimulant 1 μg/ml, supernatant dilution ½
# [10] = stimulant 1 μg/ml, supernatant dilution ⅕
# [11] = stimulant 2 μg/ml, supernatant dilution 1/20
# [12] = stimulant 2 μg/ml, supernatant dilution 1/50
# [13] = stimulant 2 μg/ml, supernatant dilution ½
# [14] = stimulant 2 μg/ml, supernatant dilution ⅕
# [15] = stimulant 5 μg/ml, supernatant dilution 1/20
# [16] = stimulant 5 μg/ml, supernatant dilution 1/50
# [17] = stimulant 5 μg/ml, supernatant dilution ½
# [18] = stimulant 5 μg/ml, supernatant dilution ⅕
sequence,measurement,setting,value
"GLAPPDYAERFELLS [GD3R3, tested as phage clone, MAP form or peptide]",binding to the anti-GD3 antibody,[1],stronger bonding to the anti-GD3 antibody
same,"ELISA absorbance, Anti-GD3 antibody",[1]; Serum % 12.50%,0.176
same,"ELISA absorbance, Anti-GD3 antibody",[1]; Serum % 25%,0.237
same,"ELISA absorbance, Anti-GD3 antibody",[1]; Serum % 50%,0.357
same,"ELISA absorbance, Anti-GD3 antibody",[1]; Serum % 100%,0.483
same,"absorbance OD450-OD620, binding to GD3 antibody 4F6",[2]; 10^9 titer/well,0.05 and 0.086
same,"absorbance OD450-OD620, binding to GD3 antibody 4F6",[2]; 10^11 titer/well,0.094 and 0.108
same,IL-2 production by T-cell-rich lymphocytes,[3]; lymphocytes from GD3-immunized mouse,production of IL-2 has been confirmed
same,"3H Thymidine up-take into CTLL2 cells, mean ± SE (4 wells)",[3]; [7],1153 ± 246
same,"3H Thymidine up-take into CTLL2 cells, mean ± SE (4 wells)",[3]; [8],571 ± 104
same,"3H Thymidine up-take into CTLL2 cells, mean ± SE (4 wells)",[3]; [9],4066 ± 853
same,"3H Thymidine up-take into CTLL2 cells, mean ± SE (4 wells)",[3]; [10],2654 ± 486
same,"3H Thymidine up-take into CTLL2 cells, mean ± SE (4 wells)",[3]; [11],1540 ± 467
same,"3H Thymidine up-take into CTLL2 cells, mean ± SE (4 wells)",[3]; [12],749 ± 118
same,"3H Thymidine up-take into CTLL2 cells, mean ± SE (4 wells)",[3]; [13],5791 ± 1154
same,"3H Thymidine up-take into CTLL2 cells, mean ± SE (4 wells)",[3]; [14],3243 ± 634
same,"3H Thymidine up-take into CTLL2 cells, mean ± SE (4 wells)",[3]; [15],1566 ± 328
same,"3H Thymidine up-take into CTLL2 cells, mean ± SE (4 wells)",[3]; [16],761 ± 102
same,"3H Thymidine up-take into CTLL2 cells, mean ± SE (4 wells)",[3]; [17],7536 ± 1247
same,"3H Thymidine up-take into CTLL2 cells, mean ± SE (4 wells)",[3]; [18],3528 ± 543
same,activation of T cells,[4]; R4-KLH-immunized mice,T cells have been confirmed to have activated
same,"3H Thymidine up-take into CTLL2 cells, mean ± SE (4 wells)",[4]; [7],1491 ± 364
same,"3H Thymidine up-take into CTLL2 cells, mean ± SE (4 wells)",[4]; [8],682 ± 120
same,"3H Thymidine up-take into CTLL2 cells, mean ± SE (4 wells)",[4]; [9],5577 ± 1063
same,"3H Thymidine up-take into CTLL2 cells, mean ± SE (4 wells)",[4]; [10],2986 ± 327
same,"3H Thymidine up-take into CTLL2 cells, mean ± SE (4 wells)",[4]; [11],1527 ± 337
same,"3H Thymidine up-take into CTLL2 cells, mean ± SE (4 wells)",[4]; [12],736 ± 137
same,"3H Thymidine up-take into CTLL2 cells, mean ± SE (4 wells)",[4]; [13],6351 ± 1314
same,"3H Thymidine up-take into CTLL2 cells, mean ± SE (4 wells)",[4]; [14],3184 ± 439
same,"3H Thymidine up-take into CTLL2 cells, mean ± SE (4 wells)",[4]; [15],1684 ± 375
same,"3H Thymidine up-take into CTLL2 cells, mean ± SE (4 wells)",[4]; [16],812 ± 151
same,"3H Thymidine up-take into CTLL2 cells, mean ± SE (4 wells)",[4]; [17],7898 ± 1496
same,"3H Thymidine up-take into CTLL2 cells, mean ± SE (4 wells)",[4]; [18],3652 ± 681
same,"ELISA absorbance, Anti-GD2 antibody",[5]; Serum % 12.50%,0.077
same,"ELISA absorbance, Anti-GD2 antibody",[5]; Serum % 25%,0.118
same,"ELISA absorbance, Anti-GD2 antibody",[5]; Serum % 50%,0.036
same,"ELISA absorbance, Anti-GD2 antibody",[5]; Serum % 100%,0.191
same,"ELISA absorbance, Anti-OAcGD3 antibody",[6]; Serum % 12.50%,0.031
same,"ELISA absorbance, Anti-OAcGD3 antibody",[6]; Serum % 25%,0.026
same,"ELISA absorbance, Anti-OAcGD3 antibody",[6]; Serum % 50%,0.031
same,"ELISA absorbance, Anti-OAcGD3 antibody",[6]; Serum % 100%,0.044
